Source: US10342776B2, “Compositions and methods for controlling infections” (priority 2004, dated 2019)

How the values were obtained:
[1] = tested on: Candida albicans (11 clinical isolates, hyphal phase); assay: Hyphal phase Candida albicans growth on Todd Hewitt agar plates containing GML; format: cell-based; conditions: 48 hours
Method: Candida albicans microorganisms were cultured on a Todd Hewitt agar plate for 48 hours at 37° C. in the presence of 7% CO2 to promote growth of hyphal forms. This plate was used to streak the microorganisms for isolation on Todd Hewitt agar plates containing 0, 10, 20, 50, or 100 μg/mL of GML. The plates were incubated for 48 hours and examined for Candida growth. The experiment was done in duplicate plates. The results obtained with duplicate plates were the same.
Organisms (at the hyphal phase) of 11 clinical isolates of Candida albicans were separately streaked on Todd Hewitt agar plates containing various concentrations of GML. The experiments were performed in duplicate. […] In contrast, the organisms grew on plates containing 0, 10 and 20 μg/ml.

Aspergillus fungi = assay: Mycelium formation on Todd Hewitt agar plates containing GML, Aspergillus; format: cell-based; conditions: for mycelium growth on plates: 36 hours, room temperature
Method: (§1) Organisms (at the spore phase) of Aspergillus and Penicillium fungi obtained from nature were separately streaked on Todd Hewitt agar plates containing various concentrations of GML. The plates were incubated at room temperature for 36 hours after which mycelium growth was determined by direct visual examination. […] In contrast, the organisms grew on plates containing 0 and 50 μg/ml.

Penicillium fungi = assay: Mycelium formation on Todd Hewitt agar plates containing GML, Penicillium; format: cell-based; conditions: for mycelium growth on plates: 36 hours, room temperature
Method: as §1

[2] = tested on: Gardnerella vaginalis (clinical isolate); assay: G. vaginalis liquid culture in dialyzable beef heart medium with GML, colony counting; format: cell-based
Method: (§2) Cells (1.2×10^7/ml in a total volume of 25 ml of dialyzable beef heart medium) of a recent clinical isolate of the gram negative rod Gardnerella vaginalis in vitro were cultured for various lengths of time with various concentrations of GML. At the various time points, the concentration of bacteria in the cultures were determined by colony counting on chocolate agar plates. GML at concentrations as low as 5 μg/ml were bactericidal to G. vaginalis. […] This finding points to the likely efficacy of GML in vivo. Moreover, GML (5 μg/ml or greater) inhibited growth of G. vaginalis plated (0.1 ml at 1.2×10^7/ml) onto chocolate agar plates (Table 3; data obtained after 24 hours of culturing).

Gardnerella vaginalis = assay: G. vaginalis growth on chocolate agar plates with GML; format: cell-based; conditions: 24 hours
Method: as §2

[3] = tested on: Haemophilus influenzae (two clinical isolates); assay: Haemophilus influenzae growth on chocolate agar plates with GML; format: cell-based
Method: G. vaginalis was formerly designated Haemophilus vaginalis. This consideration raised the possibility that GML would inhibit the growth of Haemophilus influenzae. Two recent clinical isolates of encapsulated (capsule type not typable) Haemophilus influenzae (0.1 ml at 1.0×10^7/ml plated) organisms were tested for ability to grow on chocolate agar plates with no or various concentrations of GML (Table 4; data obtained after 24 of culture). The growth of both strains was inhibited at GML concentrations of 10 μg/ml or greater.

Haemophilus influenzae = assay: Kinetic study of Haemophilus influenzae growth in Todd Hewitt medium with GML, CFU/ml; format: cell-based; conditions: GML 50 μg/ml or 100 μg/ml; liquid culture up to 24 hours
Method: The strain was inoculated (at a concentration of 1.2×10^6 CFU/ml) into 50 ml of Todd Hewitt medium containing various concentrations of GML. The cultures were grown for 24 hours in an atmosphere of 7% carbon dioxide (balance air) with shaking at 100 RPM. At designated times samples were removed, and colony forming units (CFU) per milliliter were determined by plate counts on chocolate agar plates.

[4] = tested on: Bacteroides fragilis ATCC 25285; assay: Kinetics of growth inhibition of Bacteroides fragilis in WC broth with GML, plate colony counting; format: cell-based
Method: The kinetics of growth-inhibition by GML of the obligate gram negative anaerobe Bacteroides fragilis ATCC 25285 was determined. An overnight culture of B. fragilis ATCC 25285 in Wilkens Chalgren (WC) broth was inoculated into fresh media (WC) to give a starting cell concentration of 1×10^7 cells/ml. […] […] Because growth of B. fragilis was inhibited by GML, it is expected that growth of the related gram negative anaerobe, Prevotella, would also be inhibited by GML.

Salmonella = assay: Direct toxicity of GML to Salmonella; format: cell-based
From the text: Thus, it was surprising to discover that a number of other bacterial genera (see below) were highly sensitive to the direct toxic effects of GML.

Staphylococcus aureus = conditions: earlier work, U.S. application Ser. No. 10/986,512; cited from earlier work
Neisseria gonorrheae = conditions: earlier work, U.S. application Ser. No. 10/986,512; cited from earlier work
[5] = 50 μg/ml GML, about 4 days compared to 36 hours
[6] = 100 and 500 μg/ml GML, about 4 days

## CCCCCCCCCCCC(=O)OCC(O)CO (centres unmarked) [GML, glycerol monolaurate]
[1]; 10 and 20 μg/ml GML
  growth on agar plates: grew
[1]; 50 and 100 μg/ml GML
  growth on agar plates: failed to grow
Aspergillus fungi; 50 μg/ml GML
  mycelium growth on plates: grew
Aspergillus fungi; [5]
  colony size on plates: larger in size
Aspergillus fungi; 100 and 500 μg/ml GML
  mycelium growth on plates: failed to grow
Aspergillus fungi; [6]
  visible colonies on plates: no visible colonies
Penicillium fungi; 50 μg/ml GML
  mycelium growth on plates: grew
Penicillium fungi; [5]
  colony size on plates: larger in size
Penicillium fungi; 100 and 500 μg/ml GML
  mycelium growth on plates: failed to grow
Penicillium fungi; [6]
  visible colonies on plates: no visible colonies
[2]; GML 1 μg/ml
  Cells/ml (×10^7) at 6 hours: 13 Cells/ml (×10^7)
  Cells/ml (×10^7) at 24 hours: 208 Cells/ml (×10^7)
[2]; GML 5 μg/ml
  Cells/ml (×10^7) at 6 hours: 0.0002 Cells/ml (×10^7)
  Cells/ml (×10^7) at 24 hours: 0.0004 Cells/ml (×10^7)
[2]; GML 10 μg/ml
  Cells/ml (×10^7) at 6 hours: <0.000001 Cells/ml (×10^7)
  Cells/ml (×10^7) at 24 hours: <0.000001 Cells/ml (×10^7)
[2]; GML 20 μg/ml
  Cells/ml (×10^7) at 6 hours: <0.000001 Cells/ml (×10^7)
  Cells/ml (×10^7) at 24 hours: <0.000001 Cells/ml (×10^7)
[2]; GML 50 μg/ml
  Cells/ml (×10^7) at 6 hours: <0.000001 Cells/ml (×10^7)
  Cells/ml (×10^7) at 24 hours: <0.000001 Cells/ml (×10^7)
[2]; GML 100 μg/ml
  Cells/ml (×10^7) at 6 hours: <0.000001 Cells/ml (×10^7)
  Cells/ml (×10^7) at 24 hours: <0.000001 Cells/ml (×10^7)
[2]; GML 1000 μg/ml
  Cells/ml (×10^7) at 6 hours: <0.000001 Cells/ml (×10^7)
  Cells/ml (×10^7) at 24 hours: <0.000001 Cells/ml (×10^7)
[2]; liquid culture
  GML concentration bactericidal to G. vaginalis: ≥ 5 µg/mL
Gardnerella vaginalis
  GML concentration that inhibited growth of G. vaginalis: ≥ 5 µg/mL
Gardnerella vaginalis; GML 1 μg/ml
  Growth Characteristics: Confluent growth
Gardnerella vaginalis; GML 5 μg/ml
  Growth Characteristics: No visible growth
Gardnerella vaginalis; GML 10 μg/ml
  Growth Characteristics: No visible growth
Gardnerella vaginalis; GML 20 μg/ml
  Growth Characteristics: No visible growth
Gardnerella vaginalis; GML 50 μg/ml
  Growth Characteristics: No visible growth
Gardnerella vaginalis; GML 100 μg/ml
  Growth Characteristics: No visible growth
[3]; GML 1 μg/ml
  Growth Characteristics (Strain 1): Confluent growth
  Growth Characteristics (Strain 2): Confluent growth
[3]; GML 5 μg/ml
  Growth Characteristics (Strain 1): Confluent growth
  Growth Characteristics (Strain 2): Confluent growth
[3]; GML 10 μg/ml
  Growth Characteristics (Strain 1): No visible growth
  Growth Characteristics (Strain 2): No visible growth
[3]; GML 20 μg/ml
  Growth Characteristics (Strain 1): No visible growth
  Growth Characteristics (Strain 2): No visible growth
[3]; GML 50 μg/ml
  Growth Characteristics (Strain 1): No visible growth
  Growth Characteristics (Strain 2): No visible growth
[3]; GML 100 μg/ml
  Growth Characteristics (Strain 1): No visible growth
  Growth Characteristics (Strain 2): No visible growth
[3]; both strains, chocolate agar plates
  GML concentration at which growth was inhibited: ≥ 10 µg/mL
Haemophilus influenzae
  growth of H. influenza organisms: inhibited the growth
[4]; GML 1 μg/ml, 4.5 hours
  Cells/ml ×10^7 at 4.5 hours: 16 Cells/ml ×10^7
[4]; GML 1 μg/ml
  Cells/ml ×10^7 at 25 hours: 130 Cells/ml ×10^7
[4]; GML 10 μg/ml, 4.5 hours
  Cells/ml ×10^7 at 4.5 hours: 1.4 Cells/ml ×10^7
[4]; GML 10 μg/ml
  Cells/ml ×10^7 at 25 hours: 150 Cells/ml ×10^7
[4]; GML 20 μg/ml, 4.5 hours
  Cells/ml ×10^7 at 4.5 hours: <0.01 Cells/ml ×10^7
  fold fewer bacteria than the control culture: at least 1,000 fold
[4]; GML 20 μg/ml, 24 hours
  regrowth of culture: regrowth was observed
[4]; GML 20 μg/ml
  Cells/ml ×10^7 at 25 hours: 200 Cells/ml ×10^7
[4]; GML 50 μg/ml, 4.5 hours
  Cells/ml ×10^7 at 4.5 hours: <0.01 Cells/ml ×10^7
[4]; GML 50 μg/ml
  Cells/ml ×10^7 at 25 hours: <10 Cells/ml ×10^7
[4]; GML 100 μg/ml, 4.5 hours
  Cells/ml ×10^7 at 4.5 hours: <0.001 Cells/ml ×10^7
[4]; GML 100 μg/ml
  Cells/ml ×10^7 at 25 hours: <10 Cells/ml ×10^7
[4]; GML 50 and 100 μg/ml
  growth of B. fragilis bacteria: inhibited the growth
Salmonella
  resistance to direct toxicity by GML: relatively resistant
Staphylococcus aureus
  resistance to direct toxic effects of GML: relatively resistant
Neisseria gonorrheae
  resistance to direct toxic effects of GML: relatively resistant
